Assay [1] deals with EZH2 (rPRC2) (Homo sapiens, UniProt Q15910). The assay is described as follows: EZH2 assay: rPRC2, biotinylated oligonucleosomes, 3H SAM methyl transfer (FlashPlate scintillation). The assay is classed as biochemical. Particulars: biotinylated oligonucleosome substrate.
Assay [2] concerns the target Y641N EZH2 (Homo sapiens, UniProt Q15910, Y641N). The assay is described as follows: Y641N EZH2 assay: as EZH2 assay, with reconstituted H3K27Me2 oligonucleosomes as substrate. The assay is classed as biochemical.
In assay [3] the test system is H3K27me3 mark in HeLa cells. The assay is described as follows: H3K27me3 MSD Hela Assay. The assay is classed as cell-based. The protocol: Trypsinized HeLa cells were counted and diluted in 10% DMEM (Life Technologies, Cat. #10569) to 5000 cells/75 μL. Seventy-five […] of cells were place in each well of a 96-well flat-bottomed plate and incubated at 37° C. for 4 hours. Twenty-five μL of test compound (at various concentrations) was added to the cells and incubation continued at 37° C. for 96 hours. Media was then removed and the cells rinsed once with ice cold PBS. Forty μL of ice-cold MSD Buffer AT (10 mM HEPES, pH 7.9, 5 mM MgCl2, 0.25M sucrose, Benzonase (1:10000), 1% Triton X-100 supplemented with fresh 1× Protease Inhibitor cocktail and 1 mM 4-(2-Aminoethyl)benzenesulfonyl fluoride hydrochloride (AEBSF)) was added to each well and the plates placed on ice for 30 minutes. Ten μL of 5M NaCl was then added to each well and incubation on ice continued for another 15 minutes. The material in each well was suspended pipetting up and down and then transferred to a new 96 well plate. The emptied wells were rinsed with 150 uL ice-cold 20 mM Tris pH 7.5, 1 mM EDTA, 1 mM EGTA, supplemented with fresh 1× Protease Inhibitor cocktail and 1 mM AEBSF (“NO salt NO detergent buffer) and transferred to the respective wells in the new plate. Three hundred μL of NO Salt NO detergent buffer was then added to each well of lysates and the plates frozen at −80° C.
On the same day, an appropriate number of MSD standard bind 96-well plates were coated with 30 μL/well of total H3 capture antibody (Millipore. Cat #MAB3422) at 1 μg/mL concentration in PBS. The antibody solution was evenly distributed first by tapping gently on the sides of the plates and then by shaking the plates for a few minutes at 1000 rpm. Antibody coated plates were stored at 4° C. overnight.
The next day the lysates are thawed to RT. The antibody coated MSD plates are washed 3× with TBS-T (Tris-buffered saline (Fisher Scientific, Cat #BP2471-1)+0.2% Tween-20). One-hundred fifty μL of 5% Blocker A in TBS-T is added to each well. The wells are covered and shaken on a shaker at RT for one hour. The Blocker A step is repeated a second time. After removing the blocker, 25 μL of cell lysate is transferred into each antibody coated well. The plates are shaken for 2 hours at RT, the lysate removed and the plates again washed with Blocker A in TBS-T. Twenty-five μL of appropriate freshly prepared antibody mix (including both primary and secondary antibodies) is added to each well and the plates shaken for 1 hour at RT.
Both H3 antibodies were obtained from Cell Signalling (Cat #s 4499 and 9733). The goat anti-rabbit antibody was obtained from Meso-Scale Discovery (Cat #R32AB-1).
The antibody mix was then removed and the wells washed with Blocker A. One hundred-fifty μL of freshly prepared 1×MSD Read Buffer (Meso-Scale Discovery; Cat #R927C-2) was then added to each well and the plates read on a MSD Sector 2400 Plate Reader.
Data was analyzed using Assay Assistant (Constellation Pharmaceuticals In-house product) and Activity Base (IDBS Ltd, Surrey, UK) template. Data files were imported to Assay Assistant and assay conditions were specified. A unique Analysis ID was created and the data files exported to Activity Base. An analysis template was created on Activity Base to measure dose-dependent inhibition of H3K27me3 mark and cell viability respectively. Readout of DMSO wells were used to normalize the data. Resulting curves were fitted using Activity base software Model 205 (IDBS Ltd. Surrey, UK). The data was checked for quality, validated and integrated in excel format using SARview (IDBS Ltd, Surrey, UK).

Where [4] appears, read: EZH2 IC50, wild-type EZH2 (rPRC2).
Where [5] appears, read: Y641N EZH2 IC50, Y641N mutant EZH2, H3K27Me2 oligonucleosome substrate.
Where [6] appears, read: Homo sapiens, HeLa, 96 h, read-out: H3K27me3_MSD_HeLa_ (EC50).

The structures appear in SMILES notation. Where two headings read alike, the source gives them in different places.

Chain of Y641N EZH2 (Q15910 whole entry Y641N): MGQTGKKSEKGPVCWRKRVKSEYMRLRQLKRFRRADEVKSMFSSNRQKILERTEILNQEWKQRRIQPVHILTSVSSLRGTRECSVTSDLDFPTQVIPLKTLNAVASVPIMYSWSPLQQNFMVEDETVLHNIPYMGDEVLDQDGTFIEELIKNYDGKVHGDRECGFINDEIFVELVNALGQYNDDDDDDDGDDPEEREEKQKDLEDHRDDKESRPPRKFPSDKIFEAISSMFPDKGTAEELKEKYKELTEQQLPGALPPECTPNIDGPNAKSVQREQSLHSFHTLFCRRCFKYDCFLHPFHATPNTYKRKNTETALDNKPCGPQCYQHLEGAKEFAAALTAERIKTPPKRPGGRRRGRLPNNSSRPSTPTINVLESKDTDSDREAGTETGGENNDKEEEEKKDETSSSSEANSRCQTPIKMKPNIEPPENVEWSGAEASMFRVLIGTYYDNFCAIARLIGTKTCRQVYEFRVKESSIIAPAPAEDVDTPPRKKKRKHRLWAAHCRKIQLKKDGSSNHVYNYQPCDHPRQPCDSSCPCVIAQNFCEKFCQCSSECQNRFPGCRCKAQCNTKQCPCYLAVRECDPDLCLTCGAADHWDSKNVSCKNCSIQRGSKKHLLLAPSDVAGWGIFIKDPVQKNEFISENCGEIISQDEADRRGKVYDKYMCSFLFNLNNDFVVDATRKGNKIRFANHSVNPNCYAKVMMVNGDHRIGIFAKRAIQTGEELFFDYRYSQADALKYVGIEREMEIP
Chain of Y641N EZH2 (O75530 whole entry partner): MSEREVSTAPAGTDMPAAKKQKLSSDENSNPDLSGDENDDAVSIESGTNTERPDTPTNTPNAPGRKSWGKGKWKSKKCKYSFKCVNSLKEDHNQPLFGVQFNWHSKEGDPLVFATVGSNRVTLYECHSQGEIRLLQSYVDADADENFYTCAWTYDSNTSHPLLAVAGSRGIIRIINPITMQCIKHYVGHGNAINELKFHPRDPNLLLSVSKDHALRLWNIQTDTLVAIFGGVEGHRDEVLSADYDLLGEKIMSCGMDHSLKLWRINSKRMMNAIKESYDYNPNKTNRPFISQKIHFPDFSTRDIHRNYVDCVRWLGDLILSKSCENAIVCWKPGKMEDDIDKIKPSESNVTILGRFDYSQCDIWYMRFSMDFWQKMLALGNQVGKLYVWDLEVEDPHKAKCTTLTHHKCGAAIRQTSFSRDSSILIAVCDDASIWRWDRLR
Chain of Y641N EZH2 (Q15022 whole entry partner): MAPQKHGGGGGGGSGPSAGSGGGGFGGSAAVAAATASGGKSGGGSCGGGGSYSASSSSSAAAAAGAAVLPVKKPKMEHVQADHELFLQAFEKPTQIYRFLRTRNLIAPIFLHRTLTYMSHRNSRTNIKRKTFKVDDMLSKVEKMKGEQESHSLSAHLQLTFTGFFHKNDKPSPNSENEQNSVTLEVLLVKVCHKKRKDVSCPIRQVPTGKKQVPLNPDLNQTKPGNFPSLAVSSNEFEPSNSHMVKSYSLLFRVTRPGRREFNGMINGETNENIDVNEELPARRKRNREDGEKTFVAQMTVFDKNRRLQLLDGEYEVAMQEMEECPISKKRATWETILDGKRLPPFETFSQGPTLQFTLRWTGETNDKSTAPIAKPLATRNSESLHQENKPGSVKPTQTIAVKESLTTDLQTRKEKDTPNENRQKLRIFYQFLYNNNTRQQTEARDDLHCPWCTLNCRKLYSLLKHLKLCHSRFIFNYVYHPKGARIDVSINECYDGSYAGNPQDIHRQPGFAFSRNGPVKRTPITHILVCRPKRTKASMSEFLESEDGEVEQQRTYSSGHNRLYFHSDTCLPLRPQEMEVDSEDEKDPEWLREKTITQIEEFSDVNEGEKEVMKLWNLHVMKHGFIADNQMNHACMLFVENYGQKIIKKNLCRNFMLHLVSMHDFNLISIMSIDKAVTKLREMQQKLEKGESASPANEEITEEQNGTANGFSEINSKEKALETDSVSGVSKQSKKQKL
Chain of EZH2 (rPRC2) (Q15910 whole entry): as the sequence (Q15910 whole entry Y641N) above, with N641Y counted along it
Chain of EZH2 (rPRC2) (O75530 whole entry partner): as the sequence (O75530 whole entry partner) above
Chain of EZH2 (rPRC2) (Q15022 whole entry partner): as the sequence (Q15022 whole entry partner) above

`Cc1cc(C)c(CNC(=O)c2c(C)n(C(C)c3ccccc3)c3ncccc23)c(O)n1` (racemic) [Compound 146, N-((2-hydroxy-4,6-dimethylpyridin-3-yl)methyl)-2-methyl-1-(1-phenylethyl)-1H-pyrrolo[2,3-b]pyridine-3-carboxamide]: the IC50 in assay [1] (setting [4]) was under 100 nM; in assay [2] (setting [5]) it was 100 to 1000 nM. In addition, the 50% effective concentration (EC50) in assay [3] (setting [6]) lay in the range of 400 to 2000 nM.

Take `Cc1cc(C)c(CNC(=O)c2c(C)n(C(C)c3ccc(F)cc3)c3ccccc23)c(=O)[nH]1` (racemic) [Compound 166, (±)-N-((4,6-dimethyl-2-oxo-1,2-dihydropyridin-3-yl)methyl)-1-(1-(4-fluorophenyl)ethyl)-2-methyl-1H-indole-3-carboxamide]: the IC50 was under 100 nM in assay [1] (setting [4]) and 100 to 1000 nM in assay [2] (setting [5]). For the same compound, in assay [3] (setting [6]), the concentration for a half-maximal effect (EC50) fell in the range of 2000 to 10000 nM.

Regarding `Cc1cc(C)c(CNC(=O)c2c(C)n(C(C)c3ccc(Cl)cc3)c3ccccc23)c(=O)[nH]1` (racemic) [Compound 170, (±)-1-(1-(4-chlorophenyl)ethyl)-N-((2-hydroxy-4,6-dimethylpyridin-3-yl)methyl)-2-methyl-1H-indole-3-carboxamide], the IC50 is under 100 nM in assay [1] (setting [4]) and 100 to 1000 nM in assay [2] (setting [5]). In addition, in assay [3] (setting [6]), the EC50 lay within 2000 to 10000 nM.

In the case of `Cc1cc(C)c(CNC(=O)c2c(C)n(C(C)c3cccc(Br)c3)c3ccccc23)c(=O)[nH]1` (racemic) [Compound 171, (±)-1-(1-(3-bromophenyl)ethyl)-N-((4,6-dimethyl-2-oxo-1,2-dihydropyridin-3-yl)methyl)-2-methyl-1H-indole-3-carboxamide], the 50% inhibitory concentration (IC50) in assay [1] (setting [4]) and in assay [2] (setting [5]) was under 100 nM in each case. Also, in assay [3] (setting [6]), the concentration giving a half-maximal response (EC50) was in the range of 2000 to 10000 nM.

As for `Cc1ccc(C(C)n2c(C)c(C(=O)NCc3c(C)cc(C)[nH]c3=O)c3ccccc32)cc1` (racemic) [Compound 172, (±)-N-((4,6-dimethyl-2-oxo-1,2-dihydropyridin-3-yl)methyl)-2-methyl-1-(1-(p-tolyl)ethyl)-1H-indole-3-carboxamide], the half-inhibitory concentration (IC50) in assay [1] (setting [4]) is under 100 nM; in assay [2] (setting [5]), 100 to 1000 nM. For the same compound, the half-maximal effective concentration (EC50) in assay [3] (setting [6]) was in the range of 2000 to 10000 nM.

Take `Cc1cc(C)c(CNC(=O)c2c(C)n(C(C)c3cccc(Cl)c3)c3ccccc23)c(=O)[nH]1` (racemic) [Compound 181, (±)-1-(1-(3-chlorophenyl)ethyl)-N-((4,6-dimethyl-2-oxo-1,2-dihydropyridin-3-yl)methyl)-2-methyl-1H-indole-3-carboxamide]: the IC50 in assay [1] (setting [4]) and in assay [2] (setting [5]) was under 100 nM throughout. For the same compound, the half-maximal effective concentration (EC50) in assay [3] (setting [6]) was 400 to 2000 nM.

With `Cc1cc(C)c(COC(=O)c2c(C)n(C3CCc4ccccc43)c3ncccc23)c(=O)[nH]1` (racemic) [Compound 201, (±)-(4,6-dimethyl-2-oxo-1,2-dihydropyridin-3-yl)methyl 1-(2,3-dihydro-1H-inden-1-yl)-2-methyl-1H-pyrrolo[2,3-b]pyridine-3-carboxylate], the 50% inhibitory concentration (IC50) is under 100 nM in assay [1] (wild-type EZH2 (rPRC2), read-out: EZH2 IC50) and 100 to 1000 nM in assay [2] (Y641N mutant EZH2, H3K27Me2 oligonucleosome substrate, read-out: Y641N EZH2 IC50). In assay [3] (Homo sapiens; HeLa cells, MSD, 96 hours; read-out: H3K27me3_MSD_HeLa_ (EC50)), the EC50 was 400 to 2000 nM.

For `Cc1cc(C)c(CNC(=O)c2c(C)n(C(C)c3ccccc3)c3cnccc23)c(=O)[nH]1` (racemic) [Compound 203, (±)-N-((4,6-dimethyl-2-oxo-1,2-dihydropyridin-3-yl)methyl)-2-methyl-1-(1-phenylethyl)-1H-pyrrolo[2,3-c]pyridine-3-carboxamide], the figures for the IC50 in assay [1] (setting [4]) and in assay [2] (setting [5]) were under 100 nM and 100 to 1000 nM, respectively. Further, the EC50 in assay [3] (setting [6]) lay within 2000 to 10000 nM.

On to `COCC(C)n1c(C)c(C(=O)NCc2c(OC)cc(C)[nH]c2=O)c2cccnc21` (racemic) [Compound 204, (±)-N-((4-methoxy-6-methyl-2-oxo-1,2-dihydropyridin-3-yl)methyl)-1-(1-methoxypropan-2-yl)-2-methyl-1H-pyrrolo[2,3-b]pyridine-3-carboxamide], for which the results for the 50% inhibitory concentration (IC50) in assay [1] (setting [4]) and in assay [2] (setting [5]) were under 100 nM and 100 to 1000 nM, respectively. Besides, the EC50 in assay [3] (setting [6]) was in the range of 400 to 2000 nM.

Regarding `COc1cc(C(C)n2c(C)c(C(=O)NCc3c(C)cc(C)[nH]c3=O)c3cccnc32)ccn1` (racemic) [Compound 207, (±)-N-((4,6-dimethyl-2-oxo-1,2-dihydropyridin-3-yl)methyl)-1-(1-(2-methoxypyridin-4-yl)ethyl)-2-methyl-1H-pyrrolo[2,3-b]pyridine-3-carboxamide], the figures for the 50% inhibitory concentration (IC50) in assay [1] (setting [4]) and in assay [2] (setting [5]) were under 100 nM and 100 to 1000 nM, respectively. Besides, the EC50 in assay [3] (setting [6]) lay within 2000 to 10000 nM.

As to `Cc1cc(C)c(CNC(=O)c2c(C)n(C(C)c3cccc(S(C)(=O)=O)c3)c3ccccc23)c(=O)[nH]1` (racemic) [Compound 210, (±)-N-((4,6-dimethyl-2-oxo-1,2-dihydropyridin-3-yl)methyl)-2-methyl-1-(1-(3-(methylsulfonyl)phenyl)ethyl)-1H-indole-3-carboxamide], the IC50 was under 100 nM in assay [1] (setting [4]) and 100 to 1000 nM in assay [2] (setting [5]). For the same compound, in assay [3] (setting [6]), the EC50 was in the range of 2000 to 10000 nM.

`Cc1cc(C)c(CNC(=O)c2c(C)n(C(C)C3CC3)c3ncccc23)c(=O)[nH]1` (racemic) [Compound 211, (±)-1-(1-cyclopropylethyl)-N-((4,6-dimethyl-2-oxo-1,2-dihydropyridin-3-yl)methyl)-2-methyl-1H-pyrrolo[2,3-b]pyridine-3-carboxamide]: the results for the IC50 in assay [1] (setting [4]) and in assay [2] (setting [5]) were under 100 nM and 100 to 1000 nM, respectively. Besides, the EC50 in assay [3] (setting [6]) is 400 to 2000 nM.

Take `Cc1cc(C)c(CNC(=O)c2c(C)n(C(C)c3ccccc3)c3ccccc23)c(O)n1` (single isomer, unassigned) [Compound 137, (R or S)—N-((2-hydroxy-4,6-dimethylpyridin-3-yl)methyl) 2-methyl-1-1-phenylethyl) 1H-indole-3-carboxamide]: the half-maximal effective concentration (EC50) in assay [3] (HeLa cells, MSD, 96 hours; read-out: H3K27me3_MSD_HeLa_ (EC50)) lay within 400 to 2000 nM.

Take `CCC(C)n1c(C)c(C(=O)NCc2c(C)cc(C)nc2O)c2ccccc21` (single isomer, unassigned) [Compound 147, (R or S)-1-sec-butyl-N-((2-hydroxy-4,6-dimethylpyridin-3-yl)methyl)-2-methyl-1H-indole-3-carboxamide]: the concentration for a half-maximal effect (EC50) in assay [3] (setting [6]) fell in the range of 400 to 2000 nM.

For `COc1cc(C)[nH]c(=O)c1CNC(=O)c1c(C)n(C(C)c2ccccc2)c2cnccc12` (single isomer, unassigned) [Compound 259, (R or S)-N-((4-methoxy-6-methyl-2-oxo-1,2-dihydropyridin-3-yl)rnethyl)-2-methyl-1-(1-phenylethyl)-1H-pyrrolo[2,3-c]pyridine-3-carboxamide], the IC50 in assay [1] (read-out: EZH2 IC50, wild-type EZH2 (rPRC2)) was under 100 nM. Besides, the half-maximal effective concentration (EC50) in assay [3] (read-out: H3K27me3_MSD_HeLa_ (EC50); HeLa cells, MSD, 96 hours) lay in the range of 400 to 2000 nM.

Take `COCC(C)n1c(C)c(C(=O)NCc2c(C)cc(C)[nH]c2=O)c2ccccc21` (single isomer, unassigned; peak 2) [Compound 218, (R or S)-N-((4,6-dimethyl-2-oxo-1,2-dihydropyridin-3-yl)methyl)-1-(1-methoxypropan-2-yl)-2-methyl-1H-indole-3-carboxamide-PEAK 2]: the concentration for a half-maximal effect (EC50) in assay [3] (setting [6]) is under 400 nM.

For the compound `CCC(C)n1c(C)c(C(=O)NCc2c(C)cc(C)nc2O)c2ccccc21` (stereo not drawn) [Compound 123, 1-sec-butyl-N-((2-hydroxy-4,6-dimethylpyridin-3-yl)methyl)-2-methyl-1H-indole-3-carboxamide], the concentration for a half-maximal effect (EC50) in assay [3] (setting [6]) lay in the range of 400 to 2000 nM.

For orientation: IC50 means the midpoint of a concentration-inhibition curve. As a reminder, the EC50 is the concentration that produces a half-maximal response.

Source of the values: patent publication US9371331B2, “Modulators of methyl modifying enzymes, compositions and uses thereof” (Constellation Pharmaceuticals, Inc., priority 2012, dated 2016).
